Experimental data published in patent publication EP1161410B1, “RETINOID ANTAGONISTS AND USE THEREOF” (Basilea Pharmaceutica AG, priority 1999, dated 2000).

Tests used:
[1] = Clinical trial, topical treatment of precancerous lesions of the skin (multiple actinic keratoses); format: in vivo, human; conditions: cream 1 % twice daily
From the text: Efficacy of topical application of Compound B in the treatment of precancerous lesions of the skin (multiple actinic keratoses)
In a clinical trial, a cream containing 1 % of Compound B was applied on the lesions twice daily without occlusive dressing. […]

[2] = test system: airway inflammatory cell accumulation; assay: Murine model of allergen-induced airway inflammation: airway inflammatory cell accumulation; format: in vivo, C57BL/6 mice; conditions: for Cell Influx, Total leukocytes: vehicle 795000; for Cell Influx, Eosinophils: vehicle 335000; for Cell Influx, Macrophages: vehicle 443000
Experimental: Murine model of allergen-induced airway inflammation and hyperresponsiveness.
C57BL/6 mice (8-9 weeks old) are actively sensitized to ovalbumin (OA) on day 0 and on day 14 by a intraperitoneal injection of 10 µg OA + 1 mg Al(OH)3 (gel suspension) in 0.2 ml sterile saline. On day 21, the mice were challenged with 5.0 % OA aerosol for 18 minutes. The aerosol is generated by a De Vilbiss Ultra-Neb 90 ultrasonic nebulizer, the outlet of which is connected to a small plexiglass chamber containing the animals. The mice are dosed with the RXR antagonist Compound B (10 and 30 mg/kg intraperitoneally) daily for three days, 48 hours, 24 hours, and immediately prior to OA challenge. Animals are used on […].
Airway Inflammatory Cell Accumulation: On day 24, three days after the challenge with OA aerosol, animals are anesthetized with urethane (2.4 g/kg) and tracheotomized with a 23 gauge catheter. Lungs are lavaged with aliquots (2 x 1 ml) of sterile Hank's balanced salt solution without Ca^++ and Mg^++. Lavage fluid is recovered after 30 sec by gentle aspiration and pooled for each animal. Samples then are centrifuged at 2000 rpm for 15 minutes at 5 °C. Red blood cells are lysed from the resulting pellet with 0.5 ml distilled water and the cells remaining in the pellet are reconstituted with 5 ml HBSS. Samples are centrifuged a second time at 2000 rpm for 15 minutes at 5 °C. The resulting pellet is suspended in 1 ml of HBSS. Total cell number is determined from an aliquot of the cell suspension using a hemocytometer. For cytological preparations, the cells are fixed on cytocentrifuged slides stained with a modified Wright's stain. Differential counts on at least 300 cells are made using standard morphological criteria to classify cells.

[3] = Patient I, both forearms, 4 months
[4] = Patient IV, face and back of both hands, 3 months

In the case of `CCCCOc1c(\C(C)=C/C=C/C(C)=C/C(=O)O)cc(C(C)(C)C)cc1C(C)(C)C` [Compound B, (2E,4E,6Z)-7-(3,5-di-tert.butyl-2-butyloxyphenyl]-3-methyl-2,4,6-octatrienoic acid], the “Adverse Events (particularly irritation of lesions and surrounding skin)” value (“Adverse Events” below) [1, 3] is reported as “none”, the Improvement [1, 3] is reported as “marked” and the “Reduction in Size of Lesions” value ([1]; Patient I, m, 53 years, both forearms, 4 months) is reported as 50%. The “Adverse Events” value ([1]; Patient II, face, 6 weeks) was “none”, the Improvement ([1]; Patient II, face, 6 weeks) was “slight” and the “Reduction in Size of Lesions” value ([1]; Patient III (person two), face, 4 months) was 30%. The “Adverse Events” value ([1]; Patient III, face, 4 months) was “none”, the Improvement ([1]; Patient III, face, 4 months) was “moderate” and the “Adverse Events” value [1, 4] was “none”. The Improvement [1, 4] was “moderate”, the “Adverse Events” value ([1]; Patient V, face, 2 months) was “none” and the Improvement ([1]; Patient V, face, 2 months) was “no”. For the same molecule, the “Reduction in Size of Lesions” value ([1]; Patient V, m, 74 years, face, 2 months) was 0%, the “Percent of reduction, Eosinophils” value ([2]; 10 mg/kg intraperitoneally) was 48% and the “Percent of reduction, Macrophages” value ([2]; 10 mg/kg intraperitoneally) was 35%. The “Percent of reduction, Total leukocytes” value ([2]; 10 mg/kg intraperitoneally) was 39%, the “Cell Influx, Total leukocytes” value ([2]; 10 mg/kg intraperitoneally daily for three days) was 488000 cells/ml and the “Cell Influx, Eosinophils” value ([2]; 10 mg/kg intraperitoneally) was 176000 cells/ml. For the same molecule, the “Cell Influx, Macrophages” value ([2]; 10 mg/kg intraperitoneally) was 289000 cells/ml, the “Percent of reduction, Eosinophils” value ([2]; 30 mg/kg intraperitoneally) was 73% and the “Percent of reduction, Macrophages” value ([2]; 30 mg/kg intraperitoneally) was 62%. The “Percent of reduction, Total leukocytes” value ([2]; 30 mg/kg intraperitoneally) was 66%, the “Cell Influx, Total leukocytes” value ([2]; 30 mg/kg intraperitoneally daily for three days) was 271000 cells/ml and the “Cell Influx, Eosinophils” value ([2]; 30 mg/kg intraperitoneally) was 91000 cells/ml. For the same molecule, the “Cell Influx, Macrophages” value ([2]; 30 mg/kg intraperitoneally) was 172000 cells/ml.
